Data: patent publication US4311698A, “Aminoacid derivatives of cephalosporin compounds” (priority 1980, dated 1982)
Values after ≈ are worked out from the molar mass of the structure shown.

How the values were obtained:
Type in all cases: cell-based
Pseudomonas #28 = experiment: In vitro minimal inhibitory concentration, Pseudomonas #28; settings: Pseudomonas, read-out: Minimal Inhibitory Concentration
Pseudomonas BRK 12-4-4 = experiment: In vitro minimal inhibitory concentration, Pseudomonas BRK 12-4-4; settings: BRK1244
Pseudomonas UI 18 = experiment: In vitro minimal inhibitory concentration, Pseudomonas UI 18; settings: UI18
E. Coli. Brig = experiment: In vitro minimal inhibitory concentration, E. Coli. Brig; settings: Escherichia coli
E. Coli. Vogel = experiment: In vitro minimal inhibitory concentration, E. Coli. Vogel; settings: Escherichia coli
Prot Vulg. = experiment: In vitro minimal inhibitory concentration, Prot Vulg.
Entero Cloac. IM 11 = experiment: In vitro minimal inhibitory concentration, Entero Cloac. IM 11
Serr. Mar. IMM 16 = experiment: In vitro minimal inhibitory concentration, Serr. Mar. IMM 16
Klebs. Pneum. MGH 2 = experiment: In vitro minimal inhibitory concentration, Klebs. Pneum. MGH 2
Strep. fec. MGH 2 = experiment: In vitro minimal inhibitory concentration, Strep. fec. MGH 2
Staph UC76 = experiment: In vitro minimal inhibitory concentration, Staph UC76
Staph S 18713 = experiment: In vitro minimal inhibitory concentration, Staph S 18713

`CC(=O)N[C@@H](CCC(N)=O)C(=O)Nc1ccc(-c2ccc(C(=O)N[C@@H](C(=O)NC3C(=O)N4C(C(=O)O)=C(CSc5nnnn5CS(=O)(=O)O)CSC34)c3ccccc3)c(=O)[nH]2)cc1` (stereo partly drawn) [Example 42, N-[6-[4-(N-Acetyl-L-glutaminylamino)phenyl]-1,2-dihydro-2-oxonicotinyl]-7-[D-2-amino-2-phenylacetamido]-3-[[(1-sulfomethyl-1H-tetrazol-5-yl)thio]methyl]-3-cephem-4-carboxylic acid] gave an MIC (Pseudomonas #28) of 12.5 µg/mL (≈ 13.5 µM), an MIC (Pseudomonas BRK 12-4-4) of 6.3 µg/mL (≈ 6.82 µM) and an MIC (Pseudomonas UI 18) of 6.3 µg/mL (≈ 6.82 µM). For the same compound, the MIC (E. Coli. Brig) was 6.3 µg/mL (≈ 6.82 µM), the MIC (E. Coli. Vogel) was 0.8 µg/mL (≈ 0.866 µM) and the MIC (Prot Vulg.) was 3.1 µg/mL (≈ 3.36 µM). For the same compound, the MIC (Entero Cloac. IM 11) was 6.3 µg/mL (≈ 6.82 µM), the MIC (Serr. Mar. IMM 16) was 12.5 µg/mL (≈ 13.5 µM) and the MIC (Klebs. Pneum. MGH 2) was 3.1 µg/mL (≈ 3.36 µM). It also gave an MIC (Strep. fec. MGH 2) of over 50 µg/mL, an MIC (Staph UC76) of 6.3 µg/mL (≈ 6.82 µM) and an MIC (Staph S 18713) of 12.5 µg/mL (≈ 13.5 µM).
